Columns and labels:
NURR-1/RXRα = molecular target: T1, NURR-1/RXRα (Homo sapiens, UniProt P19793); assay: Transactivation test, NURR-1-Gal4/RXRα, luciferase reporter in Cos-7 cells; assay type: cell-based; details: for Emax: COS-7, induction level relative to reference XCT0135908 at 2×10^−5 M (=100%), read-out: hNurr1_RXRaFL Emax (%); for EC50: Cos-7 cells, NURR-1-Gal4/RXRα, luciferase reporter, read-out: hNurr1_RXRaFL EC50
T1 construct: expressed in transfected cells; host or cells: Cos-7 cells

NURR-1/RXRγ = molecular target: T2, NURR-1/RXRγ (Homo sapiens, UniProt P48443); assay: Transactivation test, NURR-1-Gal4/RXRγ, luciferase reporter in Cos-7 cells; assay type: cell-based; details: for Emax: COS-7, induction level relative to reference XCT0135908 at 2×10^−5 M (=100%), read-out: hNurr1_RXRgFL Emax (%); for EC50: Cos-7 cells, NURR-1-Gal4/RXRγ, luciferase reporter, read-out: hNurr1_RXRgFL EC50
T2 construct: expressed in transfected cells; host or cells: Cos-7 cells
T2 sequence (P48443 whole entry, the tested form may be a part): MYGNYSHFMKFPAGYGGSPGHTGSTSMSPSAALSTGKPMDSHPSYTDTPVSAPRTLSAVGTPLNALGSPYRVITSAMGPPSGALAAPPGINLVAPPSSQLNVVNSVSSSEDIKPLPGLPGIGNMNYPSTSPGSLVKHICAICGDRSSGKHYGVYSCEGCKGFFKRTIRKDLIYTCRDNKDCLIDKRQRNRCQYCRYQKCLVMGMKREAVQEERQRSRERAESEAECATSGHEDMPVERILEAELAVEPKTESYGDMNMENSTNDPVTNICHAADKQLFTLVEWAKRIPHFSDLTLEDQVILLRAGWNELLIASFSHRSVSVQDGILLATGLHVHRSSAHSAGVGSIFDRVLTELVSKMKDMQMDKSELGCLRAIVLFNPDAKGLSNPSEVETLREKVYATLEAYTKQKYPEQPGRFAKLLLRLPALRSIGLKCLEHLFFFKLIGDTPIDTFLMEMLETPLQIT
T2 sequence (P43354 whole entry partner, the tested form may be a part): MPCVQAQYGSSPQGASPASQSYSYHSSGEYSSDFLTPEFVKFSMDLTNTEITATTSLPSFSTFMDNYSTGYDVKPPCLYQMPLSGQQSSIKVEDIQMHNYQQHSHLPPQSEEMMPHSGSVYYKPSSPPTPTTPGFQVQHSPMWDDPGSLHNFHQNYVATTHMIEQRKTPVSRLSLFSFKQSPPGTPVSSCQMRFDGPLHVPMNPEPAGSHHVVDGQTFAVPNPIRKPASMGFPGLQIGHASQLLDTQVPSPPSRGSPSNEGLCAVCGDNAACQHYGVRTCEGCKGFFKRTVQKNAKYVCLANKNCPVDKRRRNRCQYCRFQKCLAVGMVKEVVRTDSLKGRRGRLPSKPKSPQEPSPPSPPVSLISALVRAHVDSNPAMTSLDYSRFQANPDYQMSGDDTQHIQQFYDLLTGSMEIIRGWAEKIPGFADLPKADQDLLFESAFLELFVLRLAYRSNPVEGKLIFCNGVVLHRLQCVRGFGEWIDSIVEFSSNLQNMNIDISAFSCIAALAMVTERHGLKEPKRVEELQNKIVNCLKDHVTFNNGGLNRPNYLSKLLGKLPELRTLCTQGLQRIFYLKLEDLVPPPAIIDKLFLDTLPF
T2 sequence (P04386 1-147 partner limits assumed): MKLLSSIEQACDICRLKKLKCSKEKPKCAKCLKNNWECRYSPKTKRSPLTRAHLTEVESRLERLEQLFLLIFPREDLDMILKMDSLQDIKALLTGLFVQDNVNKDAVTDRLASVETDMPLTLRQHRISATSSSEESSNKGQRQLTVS

T1 sequence (P19793 whole entry, the tested form may be a part): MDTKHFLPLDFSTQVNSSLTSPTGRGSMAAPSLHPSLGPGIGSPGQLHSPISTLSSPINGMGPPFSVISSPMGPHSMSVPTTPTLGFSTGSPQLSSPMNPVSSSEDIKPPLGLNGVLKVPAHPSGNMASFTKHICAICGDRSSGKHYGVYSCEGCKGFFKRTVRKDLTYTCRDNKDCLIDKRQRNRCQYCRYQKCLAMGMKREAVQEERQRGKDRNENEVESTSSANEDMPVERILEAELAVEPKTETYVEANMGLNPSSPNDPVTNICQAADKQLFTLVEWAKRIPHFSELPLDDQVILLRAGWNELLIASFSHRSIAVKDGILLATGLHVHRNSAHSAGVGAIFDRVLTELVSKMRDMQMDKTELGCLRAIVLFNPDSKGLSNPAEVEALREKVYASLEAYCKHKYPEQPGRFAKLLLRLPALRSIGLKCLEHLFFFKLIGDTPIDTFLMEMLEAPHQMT
T1 sequence (P43354 whole entry partner, the tested form may be a part): as the sequence (P43354 whole entry partner, the tested form may be a part) above
T1 sequence (P04386 1-147 partner limits assumed): as the sequence (P04386 1-147 partner limits assumed) above

SMILES	Emax (NURR-1/RXRα) [%]	EC50 (NURR-1/RXRα) [µM]	Emax (NURR-1/RXRγ) [%]	EC50 (NURR-1/RXRγ) [µM]	melting point [°C]
O=C(O)C1CN(c2cccc(N3C(=O)C4(CCCC4)c4cc(C(F)(F)F)ccc43)c2)C1 [Example 142, 1-[3-[2′-oxo-5′-(trifluoromethyl)spiro[cyclopentane-1,3′-indoline]-1′-yl]phenyl]azetidine-3-carboxylic acid]	130	0.011	148	0.022	87 to 91
CC(C)c1cc2c(c(-c3cccc(N4CC(C(=O)O)C4)c3)c1)C(=O)CC(C)(C)O2 [Example 71, 1-[3-(7-isopropyl-2,2-dimethyl-4-oxochroman-5-yl)phenyl]azetidine-3-carboxylic acid]	96	0.326	101	0.435	70 to 88
O=C(O)C1CN(c2cccc(N3c4ccc(C(F)(F)F)cc4C4CCCC43)c2)C1 (centres unmarked) [Example 146, 1-[3-[7-(trifluoromethyl)-2,3,3a,8b-tetrahydro-1H-cyclopenta[b]indol-4-yl]phenyl]azetidine-3-carboxylic acid]	96	0.01	107	0.017	61 to 65
CCC1(C)C=C(c2cccc(N3CC(C(=O)[O-])C3)c2)c2ccc(C(F)(F)F)cc2O1.[Na+] (centres unmarked) [Example 266, sodium 1-[3-[2-ethyl-2-methyl-7-(trifluoromethyl)chromen-4-yl]phenyl]azetidine-3-carboxylate]	112	0.001	113	~0.001	201 to 214
CCC1(CC)C(=O)N(c2cccc(N3CC(C(=O)O)C3)c2)c2ccc(C(F)(F)F)cc21 [Example 258, 1-[3-[3,3-diethyl-2-oxo-5-(trifluoromethyl)indolin-1-yl]phenyl]azetidine-carboxylic acid]	102	0.236	107	0.755	159 to 161
O=C(O)C1CN(c2cccc(N3C(=O)COc4cc(C(F)(F)F)ccc43)c2)C1 [Example 252, 1-[3-[3-oxo-7-(trifluoromethyl)-1,4-benzoxazin-4-yl]phenyl]azetidine-3-carboxylic acid]	105	0.719	96	2.09	195 to 199
CC(C)C1CNc2c(cc(C(F)(F)F)cc2-c2cccc(N3CC(C(=O)O)C3)c2)O1 (centres unmarked) [Example 198, 1-[3-[2-isopropyl-7-(trifluoromethyl)-3,4-dihydro-2H-1,4-benzoxazin-5yl]phenyl]azetidine-3-carboxylic acid]	71	0.014	59	0.038	88 to 89
Cc1cc(N2CC(C(=O)O)C2)cc(N2CC(C)(C)Oc3cc(C(F)(F)F)ccc32)c1 [Example 116, 1-[3-[2,2-dimethyl-7-(trifluoromethyl)-3H-1,4-benzoxazin-4-yl]-5-methylphenyl]azetidine-3-carboxylic acid]	111	0.002	115	0.001	93 to 98
O=C(O)C1CN(c2cccc(-n3cc(S(=O)(=O)c4ccccc4)c4cc(C(F)(F)F)ccc43)c2)C1 [Example 135, 1-[3-[3-(benzenesulfonyl)-5-(trifluoromethyl)indol-1-yl]phenyl]azetidine-3-carboxylic acid]	77	0.034	83	0.065	150 to 153
O=C(O)C1CN(c2cccc(N3CCCc4cc(C(F)(F)F)ccc43)c2)C1 [Example 220, 1-[3-[6-(trifluoromethyl)-3,4-dihydro-2H-quinolin-1-yl]phenyl]azetidine-3-carboxylic acid]	92	0.006	90	0.014	57 to 62
CC(C)C1Oc2cc(C(F)(F)F)ccc2N(c2cccc(N3CC(C(=O)O)C3)c2)C1=O (centres unmarked) [Example 248, 1-[3-[2-isopropyl-3-oxo-7-(trifluoromethyl)-1,4-benzoxazin-4-yl]phenyl]azetidine-3-carboxylic acid]	105	0.022	92	0.313	78 to 87
Cc1ccc2c(c1)OC(C)(C)C(=O)N2c1cccc(N2CC(C(=O)O)C2)c1 [Example 249, 1-[3-(2,2,7-trimethyl-3-oxo-1,4-benzoxazin-4-yl)phenyl]azetidine-3-carboxylic acid]	95	0.245	83	0.548	78 to 91
Cc1ccc(N2CC(C)(C)Oc3cc(C(F)(F)F)ccc32)cc1N1CC(C(=O)O)C1 [Example 239, 1-[5-[2,2-dimethyl-7-(trifluoromethyl)-3H-1,4-benzoxazin-4-yl]2-methylphenyl]azetidine-3-carboxylic acid]	118	0.234	102	6.11	96 to 99
CC(C)c1cc2c(c(-c3cccc(N4CC(C(=O)O)C4)c3)c1)NCC(C)(C)O2 [Example 191, 1-[3-(7-isopropyl-2,2-dimethyl-3,4-dihydro-1,4-benzoxazin-5-yl)phenyl]azetidine-3-carboxylic acid]	90	0.031	91	0.047	78 to 83
CCC1(CC)Oc2cc(C(F)(F)F)ccc2N(c2cccc(N3CC(C(=O)O)C3)c2)C1=O [Example 247, 1-[3-[2,2-diethyl-3-oxo-7-(trifluoromethyl)-1,4-benzoxazin-4-yl]phenyl]azetidine-3-carboxylic acid]	100	0.019	92	0.043	73 to 85
CC1COc2cc(C(F)(F)F)ccc2N1c1cccc(N2CC(C(=O)O)C2)c1 (centres unmarked) [Example 124, 1-[3-[3-methyl-7-(trifluoromethyl)-2,3-dihydro-1,4-benzoxazin-4-yl]phenyl]azetidine-3-carboxyltc add]	137	0.019	139	0.029	62 to 70
CC1(C)Oc2cc(C(C)(C)C)ccc2N(c2cccc(N3CC(C(=O)[O-])C3)c2)C1=O.[Na+] [Example 250, sodium 1-[3-(7-tert-butyl-2,2-dimethyl-3-oxo-1,4-benzoxazin-4-yl)phenyl]azetidine-3-carboxylate]	98	0.289	83	0.288	178 to 198
Cc1ccc(N2CC(C(=O)O)C2)cc1N1CC(C)(C)Oc2cc(C(F)(F)F)ccc21 [Example 237, 1-[3-[2,2-dimethyl-7-(trifluoromethyl)-3H-1,4-benzoxazin-4-yl]-4-methylphenyl]azetidine-3-carboxylic acid]	82	0.057	77	0.257	74 to 83
O=C(O)C1CN(c2cccc(-n3cc(CC4CCOC4)c4cc(C(F)(F)F)ccc43)c2)C1 (centres unmarked) [Example 128, 1-[3-[3-(tetrahydrofuran-3-ylmethyl)-5-(trifluromethyl)indol-1-yl]phenyl]adetidine-3-carboxylic acid]	110	0.003	105	0.006	63 to 67
CCC1(CC)CN(c2cccc(N3CC(C(=O)O)C3)c2)c2ccc(C(F)(F)F)cc2O1 [Example 218, 1-[3-[2,2-diethyl-7-(trifluoromethyl)-3H-1,4-benzoxazin-4-yl]phenyl]azetidine-3-carboxylic acid]	72	0.005	73	0.014	70 to 79
Cc1ccc2c(c1)OC(C)(C)CN2c1cccc(N2CC(C(=O)O)C2)c1 [Example 227, 1-[3-(2,2,7-trimethyl-3H-1,4-benzoxazin-4-yl)phenyl]azetidine-3-carboxylic acid]	104	0.078	93	0.181	68 to 78
CC1(C)CN(c2cccc(N3CC(C(=O)O)C3)c2)c2ccc(C3CC3)cc2O1 [Example 229, 1-[3-(7-cyclopropyl-2,2-dimethyl-3H-1,4-benzoxazin-4yl)phenyl]azetidine-3-carboxylic acid]	104	0.243	104	0.42	67 to 71
CC(C)C1CN(c2cccc(N3CC(C(=O)O)C3)c2)c2ccc(C(F)(F)F)cc2O1 (centres unmarked) [Example 223, 1-[3-[2-isopropyl-7-(trifluoromethyl)-2,3-dihydro-1,4-benzoxazin-4-yl]phenyl]azetidine-3-carboxylic acid]	80	0.025	81	0.048	64 to 71
CC1(C)CNc2c(cc(Cl)cc2-c2cccc(N3CC(C(=O)O)C3)c2)O1 [Example 189, 1-[3-(7-chloro-2,2-dimethyl-3,4-dihydro-1,4-benzoxazin-5-yl)phenyl]azetidine-3-carboxylic acid]	110	0.013	119	0.475	81 to 88
Cc1cc2c(cc1-c1cccc(N3CC(C(=O)O)C3)c1)C(C)(C)CCC2(C)C [Example 85, 1-[3-(1,1,4,4,7-pentamethyltetralin-6-yl)phenyl]azetidine-3-carboxylic acid]	112	0.019	116	0.049	130 to 141
